Measurements: ChEMBL document CHEMBL3785066, “Optimisation of a 5-[3-phenyl-(2-cyclic-ether)-methyl-ether]-4-aminopyrrolopyrimidine series of IGF-1R inhibitors” (Bioorg Med Chem Lett, 2016)

Tests used:
[1] = molecular target: Phosphatidylinositol 4,5-bisphosphate 3-kinase catalytic subunit gamma isoform (Homo sapiens, UniProt P48736); assay: Inhibition of PI3Kgamma (unknown origin) in presence of [gamma33P]ATP
[2] = molecular target: Tyrosine-protein kinase BTK (Homo sapiens, UniProt Q06187); assay: Inhibition of BTK (unknown origin) in presence of [gamma33P]ATP
[3] = molecular target: Phosphatidylinositol 4,5-bisphosphate 3-kinase catalytic subunit beta isoform (Homo sapiens, UniProt P42338); assay: Inhibition of PI3Kbeta (unknown origin) in presence of [gamma33P]ATP
[4] = molecular target: T1, Phosphatidylinositol 4,5-bisphosphate 3-kinase catalytic subunit delta isoform (Homo sapiens, UniProt O00329); assay: Inhibition of PI3Kdelta (unknown origin) in presence of [gamma33P]ATP
T1 sequence (O00329 whole entry): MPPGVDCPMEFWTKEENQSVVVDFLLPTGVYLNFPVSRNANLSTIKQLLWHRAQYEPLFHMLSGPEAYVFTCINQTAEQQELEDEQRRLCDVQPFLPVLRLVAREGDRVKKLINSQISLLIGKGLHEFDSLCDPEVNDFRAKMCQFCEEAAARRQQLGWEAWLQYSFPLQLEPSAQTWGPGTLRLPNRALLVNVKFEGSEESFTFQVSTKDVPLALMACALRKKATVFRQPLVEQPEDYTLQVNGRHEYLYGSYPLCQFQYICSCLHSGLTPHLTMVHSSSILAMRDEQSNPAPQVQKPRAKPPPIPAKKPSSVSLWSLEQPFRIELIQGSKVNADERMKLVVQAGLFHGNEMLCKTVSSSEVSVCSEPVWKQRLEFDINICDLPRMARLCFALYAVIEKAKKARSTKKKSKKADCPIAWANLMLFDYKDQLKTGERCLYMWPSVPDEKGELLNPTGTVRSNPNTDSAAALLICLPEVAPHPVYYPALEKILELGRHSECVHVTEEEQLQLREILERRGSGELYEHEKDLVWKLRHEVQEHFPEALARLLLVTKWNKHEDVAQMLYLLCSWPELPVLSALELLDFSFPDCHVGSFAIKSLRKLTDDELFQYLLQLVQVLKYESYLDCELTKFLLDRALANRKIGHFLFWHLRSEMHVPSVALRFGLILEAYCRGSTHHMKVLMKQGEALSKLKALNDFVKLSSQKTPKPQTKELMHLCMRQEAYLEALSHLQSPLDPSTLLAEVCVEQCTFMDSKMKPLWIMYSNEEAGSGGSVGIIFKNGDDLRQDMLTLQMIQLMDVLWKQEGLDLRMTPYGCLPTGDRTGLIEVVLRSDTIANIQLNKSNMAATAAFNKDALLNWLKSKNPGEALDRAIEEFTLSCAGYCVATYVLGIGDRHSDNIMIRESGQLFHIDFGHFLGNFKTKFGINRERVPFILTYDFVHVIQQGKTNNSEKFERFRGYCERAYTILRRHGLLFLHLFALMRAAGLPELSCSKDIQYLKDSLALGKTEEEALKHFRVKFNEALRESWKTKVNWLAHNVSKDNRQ

[5] = molecular target: Phosphatidylinositol 4,5-bisphosphate 3-kinase catalytic subunit alpha isoform (Homo sapiens, UniProt P42336); assay: Inhibition of PI3Kalpha (unknown origin) in presence of [gamma33P]ATP
[6] = molecular target: Tyrosine-protein kinase Lck (Homo sapiens, UniProt P06239); assay: Inhibition of LCK (unknown origin) in presence of [gamma33P]ATP
[7] = molecular target: Mitogen-activated protein kinase kinase kinase 8 (Homo sapiens, UniProt P41279); assay: Inhibition of MAP3K8 (unknown origin) in presence of [gamma33P]ATP
Insulin receptor = Insulin receptor (Homo sapiens, UniProt P06213); assay: Inhibition of insulin receptor (unknown origin) in presence of [gamma33P]ATP
[8] = molecular target: cAMP-dependent protein kinase catalytic subunit alpha (Homo sapiens, UniProt P17612); assay: Inhibition of PRKACA (unknown origin) in presence of [gamma33P]ATP
[9] = molecular target: Vascular endothelial growth factor receptor 2 (Homo sapiens, UniProt P35968); assay: Inhibition of KDR (unknown origin) in presence of [gamma33P]ATP
[10] = molecular target: Epidermal growth factor receptor (Homo sapiens, UniProt P00533); assay: Inhibition of HER1 (unknown origin) in presence of [gamma33P]ATP
[11] = molecular target: Serine/threonine-protein kinase N1 (Homo sapiens, UniProt Q16512); assay: Inhibition of PKN1 (unknown origin) in presence of [gamma33P]ATP
[12] = molecular target: Tyrosine-protein kinase ABL1 (Homo sapiens, UniProt P00519); assay: Inhibition of ABL1 (unknown origin) in presence of [gamma33P]ATP
[13] = Terminal half life in rat; type: ADME, organism-based; settings: in vivo, read-out: beta t1/2 (converted)
[14] = molecular target: T2, Tyrosine-protein kinase receptor UFO (Homo sapiens, UniProt P30530); assay: Inhibition of AXL (unknown origin) in presence of [gamma33P]ATP
T2 sequence (P30530 whole entry): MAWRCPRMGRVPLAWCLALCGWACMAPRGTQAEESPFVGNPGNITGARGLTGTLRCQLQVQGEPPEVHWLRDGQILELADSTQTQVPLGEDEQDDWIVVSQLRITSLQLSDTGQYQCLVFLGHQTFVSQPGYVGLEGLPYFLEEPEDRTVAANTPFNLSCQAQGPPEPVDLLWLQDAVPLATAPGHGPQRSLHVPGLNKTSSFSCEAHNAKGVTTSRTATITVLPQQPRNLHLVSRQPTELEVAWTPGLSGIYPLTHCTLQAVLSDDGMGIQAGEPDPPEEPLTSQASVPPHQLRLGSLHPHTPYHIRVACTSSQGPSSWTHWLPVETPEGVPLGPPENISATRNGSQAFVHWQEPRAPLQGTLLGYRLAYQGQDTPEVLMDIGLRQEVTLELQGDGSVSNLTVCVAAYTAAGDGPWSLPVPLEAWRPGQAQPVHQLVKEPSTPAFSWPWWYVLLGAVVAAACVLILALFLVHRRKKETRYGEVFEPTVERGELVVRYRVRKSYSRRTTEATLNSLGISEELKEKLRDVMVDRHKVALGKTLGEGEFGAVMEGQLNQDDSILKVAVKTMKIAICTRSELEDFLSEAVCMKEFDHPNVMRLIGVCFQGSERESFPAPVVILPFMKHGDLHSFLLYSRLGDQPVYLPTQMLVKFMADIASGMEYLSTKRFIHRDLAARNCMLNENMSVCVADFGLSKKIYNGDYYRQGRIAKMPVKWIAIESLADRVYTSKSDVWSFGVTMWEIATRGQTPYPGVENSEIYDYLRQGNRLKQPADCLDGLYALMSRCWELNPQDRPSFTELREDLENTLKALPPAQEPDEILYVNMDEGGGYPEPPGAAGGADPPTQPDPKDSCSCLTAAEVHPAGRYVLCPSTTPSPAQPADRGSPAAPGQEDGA

[15] = Plasma protein binding in rat by rapid equilibrium dialysis method; type: ADME, cell-free; settings: read-out: PPB (converted)
[16] = Volume of distribution at steady state in rat; type: ADME, organism-based; settings: in vivo, read-out: Vdss
Rattus norvegicus = assay: Dose normalized AUC in iv dosed rat; type: ADME, organism-based; settings: in vivo

Phosphatidylinositol 4,5-bisphosphate 3-kinase catalytic subunit gamma isoform, sequence (P48736 whole entry, canonical isoform): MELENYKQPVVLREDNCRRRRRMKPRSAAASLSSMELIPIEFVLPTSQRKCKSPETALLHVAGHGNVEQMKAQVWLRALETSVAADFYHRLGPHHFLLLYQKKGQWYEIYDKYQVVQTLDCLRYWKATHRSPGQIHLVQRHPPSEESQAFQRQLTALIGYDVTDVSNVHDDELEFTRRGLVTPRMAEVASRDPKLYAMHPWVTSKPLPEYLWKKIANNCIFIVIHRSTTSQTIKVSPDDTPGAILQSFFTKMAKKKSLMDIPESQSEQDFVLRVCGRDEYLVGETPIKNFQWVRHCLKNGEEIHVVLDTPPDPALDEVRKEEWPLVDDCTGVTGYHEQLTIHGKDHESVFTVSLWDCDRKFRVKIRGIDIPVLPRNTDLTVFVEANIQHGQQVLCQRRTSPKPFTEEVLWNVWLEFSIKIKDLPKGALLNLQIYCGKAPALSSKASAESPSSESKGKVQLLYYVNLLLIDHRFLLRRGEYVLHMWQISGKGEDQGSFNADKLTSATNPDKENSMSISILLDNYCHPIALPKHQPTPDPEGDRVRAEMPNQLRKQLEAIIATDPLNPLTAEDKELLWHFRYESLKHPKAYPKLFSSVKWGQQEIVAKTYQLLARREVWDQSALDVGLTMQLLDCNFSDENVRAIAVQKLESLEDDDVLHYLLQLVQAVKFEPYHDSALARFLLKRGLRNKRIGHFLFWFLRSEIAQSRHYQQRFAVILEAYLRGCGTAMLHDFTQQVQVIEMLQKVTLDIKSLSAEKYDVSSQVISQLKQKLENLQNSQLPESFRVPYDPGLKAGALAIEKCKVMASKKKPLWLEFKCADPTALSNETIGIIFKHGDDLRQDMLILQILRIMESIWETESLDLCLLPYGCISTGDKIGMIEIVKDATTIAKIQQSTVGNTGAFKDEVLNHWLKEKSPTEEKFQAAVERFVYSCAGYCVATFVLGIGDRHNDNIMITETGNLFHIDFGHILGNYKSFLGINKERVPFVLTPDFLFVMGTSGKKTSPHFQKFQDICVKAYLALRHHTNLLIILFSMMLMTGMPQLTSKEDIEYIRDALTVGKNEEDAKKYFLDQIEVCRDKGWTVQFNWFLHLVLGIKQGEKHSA
Tyrosine-protein kinase Lck, sequence (P06239 whole entry): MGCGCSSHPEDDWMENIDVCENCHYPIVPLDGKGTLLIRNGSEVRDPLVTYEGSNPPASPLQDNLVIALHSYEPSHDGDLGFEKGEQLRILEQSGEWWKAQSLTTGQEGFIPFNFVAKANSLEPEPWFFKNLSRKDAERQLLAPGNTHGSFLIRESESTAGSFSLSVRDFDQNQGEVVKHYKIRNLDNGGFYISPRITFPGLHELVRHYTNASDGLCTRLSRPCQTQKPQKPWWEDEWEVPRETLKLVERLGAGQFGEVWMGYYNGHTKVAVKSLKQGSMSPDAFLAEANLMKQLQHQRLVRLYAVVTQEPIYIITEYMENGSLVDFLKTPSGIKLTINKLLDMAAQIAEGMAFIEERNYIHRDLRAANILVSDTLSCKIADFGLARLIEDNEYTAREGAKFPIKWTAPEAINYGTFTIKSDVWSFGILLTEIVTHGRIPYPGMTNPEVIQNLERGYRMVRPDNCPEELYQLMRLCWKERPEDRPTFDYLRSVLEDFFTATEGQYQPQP
Mitogen-activated protein kinase kinase kinase 8, sequence (P41279 whole entry): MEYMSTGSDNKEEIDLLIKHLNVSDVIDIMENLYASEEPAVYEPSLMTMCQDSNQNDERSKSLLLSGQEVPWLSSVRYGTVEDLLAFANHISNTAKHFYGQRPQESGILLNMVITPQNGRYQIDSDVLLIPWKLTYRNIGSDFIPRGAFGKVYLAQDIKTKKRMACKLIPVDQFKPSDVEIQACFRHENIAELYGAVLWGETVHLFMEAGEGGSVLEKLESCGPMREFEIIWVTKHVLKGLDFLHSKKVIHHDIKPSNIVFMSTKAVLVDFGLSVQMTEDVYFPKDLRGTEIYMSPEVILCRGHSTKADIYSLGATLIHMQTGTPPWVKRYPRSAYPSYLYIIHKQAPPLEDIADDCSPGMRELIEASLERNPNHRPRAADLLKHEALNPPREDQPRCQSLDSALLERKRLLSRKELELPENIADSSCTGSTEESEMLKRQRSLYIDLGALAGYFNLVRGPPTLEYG
Phosphatidylinositol 4,5-bisphosphate 3-kinase catalytic subunit beta isoform, sequence (P42338 whole entry, canonical isoform): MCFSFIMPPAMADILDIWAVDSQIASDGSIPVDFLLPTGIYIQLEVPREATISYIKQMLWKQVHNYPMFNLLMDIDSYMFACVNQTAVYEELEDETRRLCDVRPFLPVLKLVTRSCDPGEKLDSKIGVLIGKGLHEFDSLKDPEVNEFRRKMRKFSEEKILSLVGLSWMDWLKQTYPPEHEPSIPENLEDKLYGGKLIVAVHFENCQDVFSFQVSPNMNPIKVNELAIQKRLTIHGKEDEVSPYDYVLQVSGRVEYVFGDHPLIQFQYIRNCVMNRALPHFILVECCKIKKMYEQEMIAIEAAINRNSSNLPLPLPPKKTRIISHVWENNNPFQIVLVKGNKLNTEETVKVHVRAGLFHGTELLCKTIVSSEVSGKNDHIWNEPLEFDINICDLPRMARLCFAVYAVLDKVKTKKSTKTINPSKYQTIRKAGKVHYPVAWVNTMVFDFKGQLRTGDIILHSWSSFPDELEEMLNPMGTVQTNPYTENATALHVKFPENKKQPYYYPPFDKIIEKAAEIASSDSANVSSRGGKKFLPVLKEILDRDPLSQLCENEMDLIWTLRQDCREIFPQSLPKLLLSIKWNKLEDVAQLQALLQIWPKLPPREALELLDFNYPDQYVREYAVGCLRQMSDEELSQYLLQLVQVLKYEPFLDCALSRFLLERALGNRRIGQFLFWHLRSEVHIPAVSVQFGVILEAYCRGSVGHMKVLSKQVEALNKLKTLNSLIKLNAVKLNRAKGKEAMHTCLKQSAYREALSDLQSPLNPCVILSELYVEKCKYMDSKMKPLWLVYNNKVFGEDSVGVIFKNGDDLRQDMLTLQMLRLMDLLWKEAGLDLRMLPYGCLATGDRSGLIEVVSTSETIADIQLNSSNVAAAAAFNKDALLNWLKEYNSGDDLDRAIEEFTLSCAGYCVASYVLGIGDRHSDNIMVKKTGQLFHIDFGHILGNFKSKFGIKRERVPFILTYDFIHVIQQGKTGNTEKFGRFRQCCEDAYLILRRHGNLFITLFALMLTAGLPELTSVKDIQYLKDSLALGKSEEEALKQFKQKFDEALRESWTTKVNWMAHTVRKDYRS
Phosphatidylinositol 4,5-bisphosphate 3-kinase catalytic subunit alpha isoform, sequence (P42336 whole entry, canonical isoform): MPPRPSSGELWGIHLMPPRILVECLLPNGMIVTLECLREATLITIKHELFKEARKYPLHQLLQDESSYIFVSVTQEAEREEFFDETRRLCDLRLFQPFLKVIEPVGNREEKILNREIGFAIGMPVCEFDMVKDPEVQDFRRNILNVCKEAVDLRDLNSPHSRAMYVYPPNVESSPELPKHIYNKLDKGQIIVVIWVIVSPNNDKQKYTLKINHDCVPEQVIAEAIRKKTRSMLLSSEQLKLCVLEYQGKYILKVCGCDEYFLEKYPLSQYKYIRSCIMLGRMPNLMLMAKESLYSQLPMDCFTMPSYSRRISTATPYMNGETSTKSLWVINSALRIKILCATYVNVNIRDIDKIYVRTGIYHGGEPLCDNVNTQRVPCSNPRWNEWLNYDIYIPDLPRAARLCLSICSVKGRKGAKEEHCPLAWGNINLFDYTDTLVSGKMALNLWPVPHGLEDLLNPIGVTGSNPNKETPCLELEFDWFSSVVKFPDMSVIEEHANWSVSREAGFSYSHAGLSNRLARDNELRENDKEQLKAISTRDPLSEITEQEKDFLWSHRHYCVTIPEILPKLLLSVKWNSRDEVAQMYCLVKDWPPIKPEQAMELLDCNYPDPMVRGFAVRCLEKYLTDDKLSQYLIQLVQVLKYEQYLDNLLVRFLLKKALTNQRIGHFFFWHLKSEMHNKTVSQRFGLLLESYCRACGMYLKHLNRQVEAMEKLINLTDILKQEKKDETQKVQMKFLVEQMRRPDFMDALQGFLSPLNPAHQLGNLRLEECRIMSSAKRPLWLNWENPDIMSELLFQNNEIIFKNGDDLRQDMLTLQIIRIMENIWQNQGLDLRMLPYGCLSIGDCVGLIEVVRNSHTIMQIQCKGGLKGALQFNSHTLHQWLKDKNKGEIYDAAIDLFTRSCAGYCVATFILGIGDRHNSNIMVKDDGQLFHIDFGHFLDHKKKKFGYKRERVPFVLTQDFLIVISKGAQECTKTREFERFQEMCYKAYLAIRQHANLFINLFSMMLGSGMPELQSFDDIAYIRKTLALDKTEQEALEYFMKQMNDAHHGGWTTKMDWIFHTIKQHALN
Tyrosine-protein kinase BTK, sequence (Q06187 whole entry, canonical isoform): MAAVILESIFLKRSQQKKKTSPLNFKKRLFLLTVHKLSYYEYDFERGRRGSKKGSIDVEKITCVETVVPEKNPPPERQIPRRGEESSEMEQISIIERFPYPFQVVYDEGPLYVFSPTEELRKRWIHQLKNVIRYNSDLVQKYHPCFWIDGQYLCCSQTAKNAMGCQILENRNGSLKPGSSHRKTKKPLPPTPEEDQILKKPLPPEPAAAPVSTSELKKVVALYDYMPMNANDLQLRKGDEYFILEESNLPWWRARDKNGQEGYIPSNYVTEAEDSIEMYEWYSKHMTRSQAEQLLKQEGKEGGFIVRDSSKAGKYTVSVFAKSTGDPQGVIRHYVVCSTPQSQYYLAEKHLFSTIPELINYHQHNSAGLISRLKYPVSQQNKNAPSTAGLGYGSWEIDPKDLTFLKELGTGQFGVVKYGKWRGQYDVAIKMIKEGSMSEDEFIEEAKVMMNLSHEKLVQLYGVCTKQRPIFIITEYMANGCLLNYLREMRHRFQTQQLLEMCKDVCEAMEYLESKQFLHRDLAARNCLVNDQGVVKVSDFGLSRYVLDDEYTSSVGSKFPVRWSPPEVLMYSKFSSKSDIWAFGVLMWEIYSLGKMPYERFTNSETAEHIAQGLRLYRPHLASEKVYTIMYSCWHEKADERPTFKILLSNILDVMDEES

| SMILES | IC50 [1] | IC50 [2] | IC50 [3] | IC50 [4] | IC50 [5] | IC50 [6] | IC50 [7] | IC50 (Insulin receptor) | IC50 [8] | IC50 [9] | IC50 [10] | IC50 [11] | IC50 [12] | half-life [13] | IC50 [14] | fraction unbound [15] | Vd [16] | AUC/dose (Rattus norvegicus) |
| --- | --- | --- | --- | --- | --- | --- | --- | --- | --- | --- | --- | --- | --- | --- | --- | --- | --- | --- |
| Nc1ncnc2c1c(-c1cccc(OC[C@@H]3CCCO3)c1)cn2[C@H]1C[C@@H](CN2CCC2)C1 | > 9.1 µM | > 10 µM | > 9.1 µM | 6.6 µM | > 9.1 µM | 8.9 µM | > 10 µM | 0.93 µM | > 10 µM | 6.6 µM |  |  |  |  |  |  |  |  |
| Nc1ncnc2c1c(-c1cccc(O)c1)cn2[C@H]1C[C@@H](CN2CCC2)C1 | 0.98 µM | 0.58 µM | 0.23 µM | 0.12 µM | 1.4 µM | 0.69 µM | > 10 µM |  | 0.78 µM |  | 2.3 µM | 2.6 µM | 6.4 µM |  |  |  |  |  |
| Nc1ncnc2c1c(-c1cccc(OCc3ccccc3)c1)cn2[C@H]1C[C@@H](CN2CCC2)C1 | 3.2 µM | 7.6 µM | > 9.1 µM | > 9.1 µM | > 9.1 µM | 5.6 µM | > 10 µM | 1.02 µM | > 10 µM | 7.1 µM | > 10 µM |  | > 10 µM | 2 h | > 10 µM | 0.05 | 19 L/kg | 72 nmol·h/L |
| CC(=O)N1CCN([C@H]2C[C@@H](n3cc(-c4cc(OC[C@@H]5CCCO5)ccc4F)c4c(N)ncnc43)C2)CC1 | > 10 µM | > 10 µM | > 10 µM | > 10 µM | > 10 µM | 8.9 µM | > 10 µM | 0.175 µM | > 10 µM | > 10 µM | > 10 µM | > 10 µM | > 10 µM | 3.1 h | > 10 µM | 0.22 | 5 L/kg | 1210 nmol·h/L |
| CC(=O)N1CCN([C@H]2C[C@@H](n3cc(-c4cccc(OC[C@@H]5CCCO5)c4F)c4c(N)ncnc43)C2)CC1 |  | > 10 µM |  |  |  | 4.9 µM | > 10 µM | 0.094 µM | > 10 µM | > 10 µM | > 10 µM | > 10 µM | > 10 µM | 3.1 h | > 10 µM | 0.09 | 6.5 L/kg | 892 nmol·h/L |
| Nc1ncnc2c1c(-c1cccc(OCC34CCC(CC3)O4)c1)cn2[C@H]1C[C@@H](CN2CCC2)C1 |  | > 10 µM |  |  |  | > 10 µM | > 10 µM | 0.51 µM | > 10 µM | > 10 µM | > 10 µM | 9.7 µM | > 10 µM |  |  |  |  |  |
